Assay results taken from article PMC12279247, “Inhibition of RACK1‐Mediated NLRP3 Oligomerization (Active Conformation) Ameliorates Acute Respiratory Distress Syndrome” (Advanced Science, 2025).

Target: T1, recombinant human RACK1 protein (Homo sapiens, UniProt P63244)
T1 construct: commercial recombinant protein
Experiment: surface plasmon resonance, bigelovin loaded on CM5 chip, RACK1 flowed over
Format: binding
Settings: PBS pH 7.4, 0.05% Tween-20, 22 °C; covalent, Cys168

In the case of `C=C1C(=O)O[C@H]2C[C@@H](C)[C@@H]3C=CC(=O)[C@@]3(C)[C@@H](OC(C)=O)[C@H]12` [bigelovin], the Kd is reported as 240 nM.
